In patent US20240335439A1, “USE OF AND METHOD FOR TELAPREVIR IN PREPARATION OF DRUG FOR TREATING AN ISCHEMIA/REPERFUSION INJURY AND CYTOPROTECTIVE DRUG” (THE THIRD XIANGYA HOSPITAL OF CENTRAL SOUTH UNIVERSITY, priority 2021, published 2024):

Experiments:
[1] = system: Alzheimer's disease mouse models; experiment: Alzheimer's disease mouse model (Aβ1-42 into hippocampus), new/old object recognition experiment; format: in vivo, ICR mice; details: telaprevir 40 mg/kg intramuscular daily for 17 days; ##P<0.01 vs vehicle group, FIG. 7
Experimental: Experimental animals: 7-week-old healthy male ICR mice weighing 25-30 g. The experimental animals were raised for one week in an environment with a temperature of 25° C., a relative humidity of 60%, free drinking water, and timed and quantified feeding, and then administered according to the requirements of each experimental group.
Building of an Alzheimer's disease mouse model and drug treatment: Aβ1-42 was purchased from MCE Reagent Company, dissolved in DMSO, diluted with physiological saline to 2 μg/μL, and incubated in an incubator at 37° C. for 7 days to convert the Aβ1-42 into an aggregated state. […]
A learning and memory ability and cognitive function of mice were detected by a Morris water maze experiment and a new/old object recognition experiment.
According to the requirements of the new/old object recognition experiment, the experiment included three stages: an adaptation period, a training period, and a testing period. […] One of the two objects was replaced with another object with a different shape and color (denoted as C), and the time for the experimental mice to probe the two different objects within 10 minutes was recorded. […]

[2] = system: ischemic stroke mouse models; experiment: Ischemic stroke mouse model (MCAO 1 h, reperfusion 24 h); format: in vivo, C57BL/6J mice; details: telaprevir 90 mg/kg intramuscular after 1 hour of ischemia and 1 hour of reperfusion
Experimental: Experimental animals: 7-week-old male C57BL/6J mice. The experimental animals were raised for one week in an environment with a temperature of 25° C., a relative humidity of 60%, free drinking water, and timed and quantified feeding, and then administered according to the requirements of each experimental group.
Method for building an ischemic stroke mouse model: A cerebral ischemia/reperfusion mouse model was prepared by a middle cerebral artery occlusion (MCAO) method. The steps were as follows: after an 8-week-old male C57BL/6J mouse was anesthetized by intraperitoneal injection with 0.3% pentobarbital sodium (20 mL/kg), a left common carotid artery (CCA) was isolated, and a left external carotid artery (ECA) and internal carotid artery (ICA) were isolated upwards; the ECA and ICA were temporarily occluded with ophthalmic forceps, and a proximal end of the CCA was ligated; a knotted spare silk suture was placed at a distal end of the CCA, a small incision was cut below the suture, an occlusion suture was inserted into the internal carotid artery, arterial clips on the ECA and ICA were released, and the occlusion suture was delivered into the cranium along the ICA; and when encountering resistance, the silk suture was tightened, the occlusion suture was secured. […]
Neurological function scores of mice were detected and cerebral infarct volumes were measured.

SMILES: CCC[C@H](NC(=O)[C@@H]1[C@H]2CCC[C@H]2CN1C(=O)[C@@H](NC(=O)[C@@H](NC(=O)c1cnccn1)C1CCCCC1)C(C)(C)C)C(=O)C(=O)NC1CC1 [telaprevir]
- cognitive index, new/old object recognition [1]: significantly increased
- neurological impairment symptoms (Longa neurological function score) of mice ([2]; ##P<0.01 vs I/R, FIG. 3B): significantly improve
- cerebral infarct volume of mice (TTC staining) ([2]; vs I/R, FIG. 3A): significantly decreased
